# From patent EP4289427A1, “DIHYDRO[1,8]NAPHTHYRIDIN-7-ONE AND PYRIDO[3,2-B][1,4]OXAZIN-3-ONE FOR USE IN TREATING CANCER, AND METASTASES IN PARTICULAR” (Anagenesis Biotechnologies, priority 2022, dated 2023)
# What was measured:
# RD cells = test: Cytotoxicity assay (CellTiter-Glo 2.0) on RD cells; type: cell-based, Human; conditions: for IC50: Homo sapiens
# Method: (§1) Cytotoxicity assays consist in treating cells with compounds and assessing remaining viability after a defined incubation time, depending on the cell line. CellTiter-Glo® 2.0 reagent allows viability measurement by quantification of ATP present, which is an indicator of metabolically active cells.
# (§2) The cancer cell lines were cultivated in their respective growth medium (see tables 6a and 6b). On day 0 of the cytotoxicity assay, the cells were harvested and seeded into a 384-well plate at a defined density in their respective growth medium (see tables 6a and 6b). Compounds to be tested were then added onto the cells and incubated for a defined duration (see tables 6a and 6b). Following incubation, CellTiter-Glo® 2.0 reagent (cat.no. G9241 from Promega) was added into the wells (vol/vol, according to the manufacturer's recommendations), plates were gently shaken and incubated for 10 minutes in the dark at room temperature. Bioluminescence was then measured with a multimode plate reader (Victor Nivo from Perkin Elmer), and cell viability and relative IC50 were determined. Table 6a: Cancer cell characteristics, culture and cytotoxic assay conditions
# EoL-1 cells = test: Cytotoxicity assay (CellTiter-Glo 2.0) on EoL-1 cells; type: cell-based, Human; conditions: incubation 1 day; for IC50: Homo sapiens, EOL1, 24 h
# Method: as §1, §2
# 4T1 cells = test: Cytotoxicity assay (CellTiter-Glo 2.0) on 4T1 cells; type: cell-based, Mouse; conditions: incubation 2 days; for IC50: Mus musculus, 48 h
# Method: as §1, §2
# HUVECs = test: Tube formation assay (anti-angiogenic activity); type: cell-based, human; conditions: for IC50: Homo sapiens, HUVEC
# Description: Angiogenesis is a phenomenon that includes different processes, such as endothelial cell proliferation, migration and differentiation that lead to the formation of new blood vessels. Tube formation assay is a standard in vitro test to assess angiogenesis: briefly, human Umbilical Vein Endothelial cells (hereafter "HUVECs") cultivated on a gelled basement matrix spontaneously proliferate, migrate and differentiate to form tube-like structures, that appear elongated and that connect to each other to form a network.
# HUVECs were cultivated in Endothelial Cell Growth Medium (cat.no. C-22010 from Promocell) supplemented with 1% PenStrep (hereafter "HUVEC medium"). On day 0, HUVECs were harvested and transferred into a 384-well plate precoated with 10 µl/well of Cultrex UltiMatrix Reduced Growth factor basement membrane (cat.no. BME001-10 from BioTechne), according to the manufacturer's instructions, at a density of 5000 cells/well in HUVEC medium. Compounds to be tested were then added onto the cells and incubated for 16 to 18 hours at 37°C. After this incubation period, the cells were stained with calcein-AM (cat.no. 10462052 from Fisher Scientific) and pictures were acquired using a confocal fluorescent microscope (IXM from Molecular Devices). Tube formation was measured with MetaXpress® Software.
# MDA-MB-231 cells = test: Cytotoxicity assay (CellTiter-Glo 2.0) on MDA-MB-231 cells; type: cell-based, Human; conditions: incubation 3 days; for IC50: Homo sapiens, 72 h
# Method: as §1, §2
SMILES,Cytotoxicity (RD cells; 2 day-treatment),Cytotoxicity (RD cells; 4 day-treatment),"IC50 (RD cells; 48 h, 2 day-treatment) [nM]","IC50 (RD cells; 96 h, 4 day-treatment) [nM]",IC50 (EoL-1 cells) [nM],Cytotoxicity (EoL-1 cells),IC50 (4T1 cells) [nM],Cytotoxicity (4T1 cells),IC50 (HUVECs; incubation 16 to 18 hours) [nM],Angiogenesis inhibition (HUVECs; incubation 16 to 18 hours),IC50 (MDA-MB-231 cells) [nM],Cytotoxicity (MDA-MB-231 cells),other results
"CSc1cc(Oc2ccnc3c2CCC(=O)N3)ccc1NC(=O)Nc1cc(C(C)(C)C)nn1-c1ccccc1 [Compound 001, 1-(3-(tert-butyl)-1-phenyl-1H-pyrazol-5-yl)-3-(2-(methylthio)-4-((7-oxo-5,6,7,8-tetrahydro-1,8-naphthyridin-4-yl)oxy)phenyl)urea]",+ (20 % ≤ cytotoxicity < 50%),++ (50% ≤ cytotoxicity < 85%),1000 to 5000,1000 to 5000,10 to 100,+++ (cytotoxicity ≥ 85%),1000 to 5000,+++ (cytotoxicity ≥ 85%),< 100,+++ (angiogenesis inhibition ≥ 80%),1000 to 5000,++ (50% ≤ cytotoxicity < 85%),–
"CSc1cc(Oc2ccnc3c2CCC(=O)N3)ccc1NC(=O)Nc1cc(C(C)(C)C)nn1-c1ccc(C)cc1 [Compound 002, 1-(3-(tert-butyl)-1-(p-tolyl)-1H-pyrazol-5-yl)-3-(2-(methylthio)-4-((7-oxo-5,6,7,8-tetrahydro-1,8-naphthyridin-4-yl)oxy)phenyl)urea]",++ (50% ≤ cytotoxicity < 85%),++ (50% ≤ cytotoxicity < 85%),1000 to 5000,1000 to 5000,10 to 100,+++ (cytotoxicity ≥ 85%),1000 to 5000,+++ (cytotoxicity ≥ 85%),< 100,+++ (angiogenesis inhibition ≥ 80%),1000 to 5000,++ (50% ≤ cytotoxicity < 85%),–
"CSc1cc(Oc2ccnc3c2CCC(=O)N3)ccc1NC(=O)Nc1cc(C(C)(C)C)nn1-c1cccc(Cl)c1 [Compound 003, 1-(3-(tert-butyl)-1-(3-chlorophenyl)-1H-pyrazol-5-yl)-3-(2-(methylthio)-4-((7-oxo-5,6,7,8-tetrahydro-1,8-naphthyridin-4-yl)oxy)phenyl)urea]",+ (20 % ≤ cytotoxicity < 50%),+ (20 % ≤ cytotoxicity < 50%),1000 to 5000,5000 to 10000,–,–,< 1000,+++ (cytotoxicity ≥ 85%),–,–,1000 to 5000,++ (50% ≤ cytotoxicity < 85%),–
"CSc1cc(Oc2ccnc3c2CCC(=O)N3)ccc1NC(=O)Nc1ncc(C(C)(C)C)s1 [Compound 004, 1-(5-(tert-butyl)thiazol-2-yl)-3-(2-(methylthio)-4-((7-oxo-5,6,7,8-tetrahydro-1,8-naphthyridin-4-yl)oxy)phenyl)urea]",+ (20 % ≤ cytotoxicity < 50%),++ (50% ≤ cytotoxicity < 85%),1000 to 5000,1000 to 5000,1 to 10,+++ (cytotoxicity ≥ 85%),1000 to 5000,+++ (cytotoxicity ≥ 85%),100 to 500,+++ (angiogenesis inhibition ≥ 80%),< 1000,++ (50% ≤ cytotoxicity < 85%),–
"CSc1cc(Oc2ccnc3c2CCC(=O)N3)ccc1NC(=O)Nc1cncc(C(F)(F)F)c1 [Compound 005, 1-(2-(methylthio)-4-((7-oxo-5,6,7,8-tetrahydro-1,8-naphthyridin-4-yl)oxy)phenyl)-3-(5-(trifluoromethyl)pyridin-3-yl)urea]",+ (20 % ≤ cytotoxicity < 50%),++ (50% ≤ cytotoxicity < 85%),1000 to 5000,1000 to 5000,< 1,+++ (cytotoxicity ≥ 85%),5000 to 10000,++ (50% ≤ cytotoxicity < 85%),100 to 500,++ (80% > angiogenesis inhibition ≥ 50%),1000 to 5000,++ (50% ≤ cytotoxicity < 85%),–
"CC(C)(C)c1cnc(NC(=O)Nc2ccc(Oc3ccnc4c3CCC(=O)N4)c3ccccc23)s1 [Compound 007, 1-(5-(tert-butyl)thiazol-2-yl)-3-(4-((7-oxo-5,6,7,8-tetrahydro-1,8-naphthyridin-4-yl)oxy)naphthalen-1-yl)urea]",+ (20 % ≤ cytotoxicity < 50%),++ (50% ≤ cytotoxicity < 85%),5000 to 10000,1000 to 5000,10 to 100,+++ (cytotoxicity ≥ 85%),1000 to 5000,+++ (cytotoxicity ≥ 85%),< 100,+++ (angiogenesis inhibition ≥ 80%),1000 to 5000,++ (50% ≤ cytotoxicity < 85%),–
CSc1cc(Oc2ccnc3c2OCC(=O)N3)ccc1NC(=O)Nc1ncc(C(C)(C)C)o1 [Compound 025],–,–,–,–,< 1,+++ (cytotoxicity ≥ 85%),–,–,–,–,–,–,–
"CC(C)(C)c1cc(NC(=O)Nc2ccc(Oc3ccnc4c3CCC(=O)N4)cc2C(F)(F)F)n(-c2ccc(F)cc2F)n1 [Compound 029, 1-[5-tert-butyl-2-(2,4-difluorophenyl)pyrazol-3-yl]-3-[4-[(7-oxo-6,8-dihydro-5H-1,8-naphthyridin-4-yl)oxy]-2-(trifluoromethyl)phenyl]urea]",–,–,–,–,10 to 100,+++ (cytotoxicity ≥ 85%),1000 to 5000,++ (50% ≤ cytotoxicity < 85%),100 to 500,++ (80% > angiogenesis inhibition ≥ 50%),5000 to 10000,+ (20 % ≤ cytotoxicity < 50%),–
CC(C)(C)c1coc(NC(=O)Nc2ccc(Oc3ccnc4c3CCC(=O)N4)cc2C(F)(F)F)n1 [Compound 036],+ (20 % ≤ cytotoxicity < 50%),- (cytotoxicity < 20%),1000 to 5000,1000 to 5000,≥ 100,+ (20 % ≤ cytotoxicity < 50%),≥ 10000,- (cytotoxicity < 20%),–,–,5000 to 10000,+ (20 % ≤ cytotoxicity < 50%),–
"CC(C)(C)c1cc(NC(=O)Nc2ccc(Oc3ccnc4c3OCC(=O)N4)cc2C(F)(F)F)n(-c2ccc(CCN3CCOCC3)cc2)n1 [Compound 053, 1-[5-tert-butyl-2-[4-(2-morpholinoethyl)phenyl]pyrazol-3-yl]-3-[4-[(3-oxo-4H-pyrido[3,2-b][1,4]oxazin-8-yl)oxy]-2-(trifluoromethyl)phenyl]urea]",–,–,–,–,10 to 100,+++ (cytotoxicity ≥ 85%),< 1000,+++ (cytotoxicity ≥ 85%),< 100,+++ (angiogenesis inhibition ≥ 80%),1000 to 5000,++ (50% ≤ cytotoxicity < 85%),–
"COc1cc2nccc(Oc3ccc(NC(=O)NC4CC4)c(Cl)c3)c2cc1C(N)=O [Lenvatinib, reference compound]",–,–,–,–,–,–,–,–,–,–,–,–,IC50 (EoL-1 cells; commercial kinase inhibitors): 1 to 10 nM; Cytotoxicity (EoL-1 cells; commercial kinase inhibitors): +++ (cytotoxicity ≥ 85%); IC50 (4T1 cells; commercial kinase inhibitors): 1000 to 5000 nM; Cytotoxicity (4T1 cells; commercial kinase inhibitors): + (20 % ≤ cytotoxicity < 50 %); IC50 (HUVECs; commercial kinase inhibitors): < 100 nM; Angiogenesis inhibition (HUVECs; commercial kinase inhibitors): ++ (80% > angiogenesis inhibition ≥ 50%); IC50 (MDA-MB-231 cells; commercial kinase inhibitors): ≥ 10000 nM; Cytotoxicity (MDA-MB-231 cells; commercial kinase inhibitors): - (cytotoxicity < 20 %)
"Cc1ccc(F)c(NC(=O)Nc2ccc(-c3cccc4[nH]nc(N)c34)cc2)c1 [Linifanib, reference compound]",–,–,–,–,–,–,–,–,–,–,–,–,IC50 (HUVECs; commercial kinase inhibitors): < 100 nM; Angiogenesis inhibition (HUVECs; commercial kinase inhibitors): + (50% > angiogenesis inhibition ≥ 20%)
"COc1cc2nccc(Oc3ccc(NC(=O)Nc4cc(C)on4)c(Cl)c3)c2cc1OC [Tivozanib, reference compound]",–,–,–,–,–,–,–,–,–,–,–,–,"Cytotoxicity (RD cells; 2 day-treatment, commercial kinase inhibitors): - (cytotoxicity < 20 %); Cytotoxicity (RD cells; 4 day-treatment, commercial kinase inhibitors): - (cytotoxicity < 20 %); IC50 (RD cells; 48 h, 2 day-treatment, commercial kinase inhibitors): ≥ 10000 nM; IC50 (RD cells; 96 h, 4 day-treatment, commercial kinase inhibitors): ≥ 10000 nM; IC50 (4T1 cells; commercial kinase inhibitors): 5000 to 10000 nM; Cytotoxicity (4T1 cells; commercial kinase inhibitors): +++ (cytotoxicity ≥ 85 %); IC50 (HUVECs; commercial kinase inhibitors): 100 to 500 nM; Angiogenesis inhibition (HUVECs; commercial kinase inhibitors): + (50% > angiogenesis inhibition ≥ 20%); IC50 (MDA-MB-231 cells; commercial kinase inhibitors): 5000 to 10000 nM; Cytotoxicity (MDA-MB-231 cells; commercial kinase inhibitors): ++ (50 % ≤ cytotoxicity < 85 %)"
